In patent US20060069076A1, “LXR/RXR-related methods and compositions” (priority 2004, published 2006):

Columns and labels:
Assay type in all cases: cell-based, mouse
[1] = tested on: Aβ secretion from Neuro2a-APPSw cells; assay: Secreted Aβ from Neuro2a-APPSw cells after LXR activation (immunoprecipitation and immunoblotting)
Description: Neuro2a-APPSw cells were treated with LXR activators (TO or 22(R)-hydroxycholesterol) and in some cases also with RXR activator (9-cis-retinoic acid). Secreted Aβ (sAβ) was detected in medium by immunoprecipitation and immunoblotting. Cellular APP (cAPP) levels were measured by immunoblotting cell lysates. Western blots were scanned and quantified by ImageQuant. The bar graphs show the combined results (means±S.E.) from at least three independent experiments. A, cells were treated with increasing amounts of TO. B, cells were treated with mock transfection (control) or 1 μM TO, μM 9-cis-RA. C, cells were treated with mock transfection or 5 μM 22(R)-hydroxycholesterol (22(R)OHchol), 10 μM 9-cis-RA. #, p<0.05 compared with control. *, p<0.01 compared with control. […]
In experiments with LXR activation, the cells were first induced with activators for 24 h in DMEM, 5% lipoprotein-deficient serum. […] The immunoblots were developed using the ECL system (Pierce) scanned and quantified by ImageQuant (Molecular Dynamics). Quantitation of Aβ40 and Aβ42 was performed using a commercial Aβ enzyme-linked immunosorbent assay kit. […]
The cells were treated with increasing doses of the synthetic LXRα/β activator TO901317 (“TO”), and Aβ secretion into medium was measured by immunoprecipitation and Western blotting (FIG. 1A).

[2] = tested on: Aβ secretion from Neuro2a-APPSw cells; assay: Aβ secretion from ABCA1- or mock-transfected Neuro2a-APPSw cells with added apolipoproteins; conditions: apolipoprotein added for 6 h, compared with ABCA1 without apolipoprotein
Description: FIGS. 3A-3C: ABCA1 overexpression inhibits Aβ secretion.
FIG. 4: The effect of apoE isoforms on Aβ secretion.
(§1) Cellular cholesterol mass was also measured.
Because apoE is a major apolipoprotein in the central nervous system and the apoE4 isoform is associated with increased risk of AD (19, 20), the effects of apoE on Aβ formation was also examined. […] Again, the major effect was attributable to ABCA1 expression alone.

[3] = tested on: Aβ generation from C99 in Neuro2a cells; assay: γ-Secretase cleavage of C99 Myc in Neuro2a cells transfected with ABCA1; conditions: Neuro2a cells transfected with C99 Myc and ABCA1; apoA-I added; data not shown
Description: FIGS. 5A-5B: ABCA1 overexpression decreases β-cleavage of APPSw and γ-cleavage of the 99-amino acid C-terminal fragment of APP. A, Neuro2a-APPSw cells were transfected with either empty vector or vector containing ABCA1 cDNA. The β-cleavage product C99 was detected by immunoprecipitation of cell lysates with antibody 4G8 followed by immunoblotting with 6E10. Cellular APP (cAPP) level was measured by immunoblotting cell lysates. The data are the means±S.E. for five separate experiments; *, p<0.01 compared with mock (mk) transfected. B, Neuro2a cells were transfected with vector containing either C99 Myc alone or C99 Myc with ABCA1. Aβ was detected as in FIG. 3. Cellular C99 was detected by immunoprecipitation with anti-Myc antibody followed by Western blot with 6E10. The data are shown for three separate experiments conducted in duplicate. #, p<0.05 compared with C99 transfected alone.
Both β and γ-cleavage of APP are required for the generation of Aβ. A series of experiments were carried out to determine which step is affected by ABCA1 overexpression. To measure β-cleavage, the β-secretase cleavage product was immunoprecipitated (C99 ) from cell lysates. There was an 85% decrease of cellular C99 in Neuro2a-APPSw cells transiently transfected with ABCA1 compared with mock transfected control (FIG. 5A). γ-Secretase mediates the final step in Aβ generation (1). […]

[4] = tested on: efflux of cellular phospholipids, Neuro2a cells; assay: Cellular phospholipid efflux from ABCA1-expressing Neuro2a cells; conditions: expression of ABCA1 and addition of apoA-I
[5] = tested on: cellular cholesterol efflux, Neuro2a cells; assay: Cellular cholesterol efflux from ABCA1-expressing Neuro2a cells; conditions: expression of ABCA1 and addition of apoA-I (10 μg/ml, 6 h)
Description: The efflux experiments were performed as described (13). Briefly, Neuro2a cells were labeled with 1 μCi/ml [1.2-^3H(N)]-cholesterol (PerkinElmer Life Sciences) in DMEM containing 5 mM methyl-β-cyclodextrin:cholesterol at a molar ratio of 8:1 for 15 min at 37° C. After washing, the cells were equilibrated in DMEM, 0.2% bovine serum albumin for 30 min and then used for efflux experiments. […] The cells were lysed in 0.1 M sodium hydroxide, 0.1% SDS, and radioactivity was determined by liquid scintillation counting. Efflux was expressed as the percentage of radioactivity in the medium relative to the total radioactivity in cells and medium.
as §1

Compound | reduction in secretion of Aβ into medium ([1]; 1 μM TO, 24 h induction, 4 h medium, immunoprecipitation and Western blotting (FIG. 1A)) [%] | amount of soluble form of APP (APPsα) in medium ([1]; administration of the LXR activator, data not shown) | further change in Aβ on adding apolipoprotein to ABCA1-expressing cells [2] | further decrease in Aβ generation from C99 [3] | increase in efflux of cellular phospholipids [4] | increase in cellular cholesterol efflux [5]
O=S(=O)(c1ccccc1)N(CC(F)(F)F)c1ccc(C(O)(C(F)(F)F)C(F)(F)F)cc1 [TO901317] | ~50 | not significantly changed | – | – | – | –
apoA-I: purified human apolipoprotein A-I, from Biodesign | – | – | only a slight further decrease | did not provide a further decrease | 1.9 % of total cellular choline-labeled lipids | 1.0±0.1 % of total cellular cholesterol
